Results taken from patent US11986507B1, “Micronutrient composition to improve men's health” (priority 2023, dated 2024).

Legend:
Format in all cases: cell-based
[1] = tested on: IL6 release by Human Aortic Endothelial Cells (HAEC); assay: IL6 secretion by human aortic endothelial cells (HAEC) in the presence of LPS (ELISA); details: 24 h, 20 ng/ml LPS, with 200 mcM Ascorbate or w/o Ascorbate (FIG. 13)
Method: Cytokine assay in Human Aortic endothelial cells (AoEC): Human Aortic endothelial cells (AoEC, Lonza) were cultured in EBG-2 cell culture medium (Lonza) and used in experiments at 5-8 passages. AoEC were seeded in 96-well plates covered with fibronectin or collagen (COSTAR) in 100 mcl/well growth medium. After reaching confluency cells were supplemented with tested components in 100 mcl growth medium for 48 hour incubation. Levels of cytokines were assayed with corresponding ELISA assays (R&D Systems).
The test was carried out by incubating HAEC cells for 24 h in the presence of 20 ng/ml LPS (all samples) and 200 mcM Ascorbate or w/o Ascorbate.

[2] = tested on: Mouse Leyden TM3 cells; assay: Testosterone production assay in TM3 cells, normal conditions (testosterone ELISA)
Method: (§1) Testosterone production assay: Mouse Leyden TM3 cells (ATCC) were cultured at 37° C., 5% CO2, in growth medium: 1:1 mixture of Ham's F12 medium and Dulbecco's modified Eagle's medium with 2.5 mM L-Glutamine, 0.5 mM Sodium Pyruvate, 1.2 g/L Sodium Bicarbonate and 15 mM HEPES, 92.5%; horse serum, 5%; fetal bovine serum, 2.5%. TM3 cells were seeded in 96-well plates covered with fibronectin or collagen (COSTAR) in […] growth medium. After reaching confluency cells were supplied with tested components in 100 mcl growth medium for 48 hour incubation. In some tests we also used additions of TNF alpha at 1 ng/ml and 10 ng/ml as indicated in appropriate figure legends. Testosterone content in 50 mcl conditioned cell culture medium samples was assayed with testosterone ELISA assay (DRG #EIA-1559) as described in the manufacturer's protocol.
The concentration of ingredients were Rosemary extract 20 mcg/ml, Fenugreek-20 mcg/ml, Cassia nomane—20 mcg/ml, 3′3-di indolylmethylene—5 mcg/ml, Zinc—2 mcg/ml, Phosphatidylserine—20 mcg/ml, Vitamin D—5 mcg/ml, Niacin—20 mcg/ml, Theanine—2 mcg/ml, Aspartic acid—2 mcg/ml, Arginine—2 mcg/ml and DHEA—2 mcg/ml.

[3] = tested on: Mouse Leyden TM3 cells; assay: Testosterone production assay in TM3 cells under pro-inflammatory conditions (TNF alpha); details: 10 ng/ml TNFa; for effect on testosterone secretion (in words): 48 h, in the presence and absence of DHEA (FIG. 3)
Method: as §1
It is known that chronic inflammation, such as in the presence of TNF alpha, can suppress testosterone production, which has physiological implications as it is related to an increased risk of infertility. Incubation was for 48 h with 10 ng/ml TNFa (all samples) and 1 mcg/ml DHEA or w/o DHEA. Data are presented as % of no additions Control. We evaluated the effects of micronutrients on testosterone production in Leydig cells exposed to a proinflammatory factor—TNF alpha.

[4] = tested on: Human aortic smooth muscle cells (AoSMC); assay: Collagen gel contraction by AoSMC; details: individual components (FIG. 6)
Method: Collagen gel contraction by AoSMC: Gel Contraction Assay: Human aortic smooth muscle cells (AoSMS) were obtained from Lonza Corporation and cultured in DMEM cell culture medium (ATCC) supplemented with 5% fetal bovine serum (ATCC). For experiments cells were suspended in DMEM medium at 500,000 per mL by trypsinization and mixed with equal volume of 2 mg/ml bovine skin collagen (Sigma) solution in DMEM. Resulting cell suspension was distributed at 300 mcl per well of plastic 24 well plate pretreated with 10 mg/ml bovine serum albumin in phosphate buffered saline. Collagen gels, formed in the wells after one hour incubation at 37° C., were supplemented with 500 mcl DMEM containing indicated amounts of tested compounds. After 24 hours incubation at 37° C. pictures of the wells were taken with digital photo camera and gel surface area was measured in pixels using ImageJ scientific software. Gel contraction was expressed as percentage of unsupplemented control using the following formula: (No Cell Control Gel Area−Tested Sample Gel Area)/(No Cell Control Gel Area−Not Supplemented Control Gel Area)*100%. All experiments were done in triplicates and results are expressed as mean values+/−SD.

Compound | effect of individual compounds on IL-6 secretion (in words) [1] | testosterone secretion, % of Control ([2]; 11 mcg/ml (FIG. 2)) | effect on testosterone secretion (in words) [3] | other results
Phosphatidylserine | significant inhibitory effect | – | – | –
C[C@]12CC[C@H](O)CC1=CC[C@@H]1[C@@H]2CC[C@]2(C)C(=O)CC[C@@H]12 [DHEA, Dehydroepiandrosterone] | – | 1402 % of Control | – | increase of testosterone secretion compared to control ([2]; 11 mcg/ml (FIG. 2)): 1402%; increase of testosterone secretion compared to control ([2]; 33 mcg/ml (FIG. 2)): 2361%; increase of testosterone secretion compared to control ([2]; applied individually, DHEA 2 mcg/ml (FIG. 1)): 161%; decrease of testosterone secretion compared to normal Control ([3]; 1 mcg/ml DHEA, 48 h (FIG. 3)): about 48%
CC(=O)[O-].CC(=O)[O-].[Zn+2] [zinc, Zinc Acetate Dihydrate] | – | – | decreasing | SMC relaxation by individual compounds [4]: 69%
Oc1ccc(C=Cc2cc(O)cc(O)c2)cc1 [resveratrol] | – | – | decreasing | –
C=C1CC[C@H](O)C/C1=C/C=C1\CCC[C@]2(C)[C@@H]([C@H](C)CCCC(C)C)CC[C@@H]12 [Vitamin D, Cholecalciferol] | significant inhibitory effect | 115 % of Control | – | –
